According to ChEMBL document CHEMBL4130475, “Lorneic Acid Analogues from an Endophytic Actinomycete” (J Nat Prod, 2017):

Tests used:
[1] = target: T1, Tyrosinase (Agaricus bisporus) (UniProt O42713); assay: Inhibition of mushroom tyrosinase at 0.19 mM using L-DOPA as substrate after 5 mins by spectrophotometric analysis relative to control
T1 sequence (whole entry): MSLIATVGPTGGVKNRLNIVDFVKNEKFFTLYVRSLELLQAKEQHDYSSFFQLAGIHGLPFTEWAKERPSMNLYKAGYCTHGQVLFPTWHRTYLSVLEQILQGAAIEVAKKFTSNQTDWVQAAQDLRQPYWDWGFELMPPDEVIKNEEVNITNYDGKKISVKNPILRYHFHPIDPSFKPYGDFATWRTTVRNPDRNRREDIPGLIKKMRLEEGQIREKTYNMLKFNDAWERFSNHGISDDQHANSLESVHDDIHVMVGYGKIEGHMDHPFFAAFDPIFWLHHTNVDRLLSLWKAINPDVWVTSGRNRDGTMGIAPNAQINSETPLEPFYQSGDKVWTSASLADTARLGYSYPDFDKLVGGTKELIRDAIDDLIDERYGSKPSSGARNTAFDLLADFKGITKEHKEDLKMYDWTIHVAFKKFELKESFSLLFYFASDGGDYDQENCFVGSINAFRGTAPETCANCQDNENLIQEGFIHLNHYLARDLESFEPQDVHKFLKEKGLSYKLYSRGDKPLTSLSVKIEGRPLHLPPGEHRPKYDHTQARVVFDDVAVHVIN

[2] = target: T1, Tyrosinase (Agaricus bisporus); assay: Inhibition of mushroom tyrosinase at 0.18 mM using L-DOPA as substrate after 5 mins by spectrophotometric analysis relative to control
[3] = target: T1, Tyrosinase (Agaricus bisporus); assay: Inhibition of mushroom tyrosinase at 0.11 mM using L-DOPA as substrate after 5 mins by spectrophotometric analysis relative to control

Structure (SMILES): CC/C=C/c1cc(C)ccc1/C=C/CCCC(=O)O
- inhibition [1]: 12.9%

Structure (SMILES): CCCC(O)c1cc(C)ccc1/C=C/CCCC(=O)O (stereo not drawn)
- inhibition [2]: 27%

Structure (SMILES): CCCC(SSCC(NC(C)=O)C(=O)O)c1cc(C)ccc1/C=C/CCCC(=O)O (stereo not drawn)
- inhibition [3]: 18.9%
